Values quoted from earlier work as cited in patent publication WO2011084962A1, “Analogs of dehydrophenylahistins” (Nereus Pharmaceuticals Inc, priority 2010, dated 2011).

Assays:
[1] = test system: choroidal neovascularization; conditions: in vivo
[2] = test system: VEGF induced retinal neovascularization; conditions: in vivo
[3] = test system: retinal neovascularization; conditions: occurs during proliferative retinopathy
[4] = test system: neovessels in non-neoplastic tissue; conditions: in vivo
[5] = test system: cell cycle progression in the M phase

SMILES | inhibition of cell cycle progression in the M phase [5] | effect on the microtubule assembly (microtubule assembly) | also measured
COc1ccc(/C=C\c2cc(OC)c(OC)c(OC)c2)cc1OP(=O)(O)O [CA-4P] | – | – | inhibition of development and/or partial regression of choroidal neovascularization [1]: inhibit the development and/ or cause partial regression of choroidal neovascularization; suppression of the development of VEGF induced retinal neovascularization [2]: suppress the development of VEGF induced retinal neovascularization; inhibition of retinal neovascularization [3]: inhibit the retinal neovascularization that occurs during proliferative retinopathy
COc1ccc(/C=C\c2cc(OC)c(OC)c(OC)c2)cc1O [Combretastatin A-4] | – | – | disruption of neovessels in non-neoplastic tissue [4]: cause the disruption of neovessels in non-neoplastic tissue
COc1ccc2c(C[C@@H]3NC(=O)[C@@H]4CCCN4C3=O)c(CC=C(C)C)[nH]c2c1 [tryprostatin A] | inhibited cell cycle progression in the M phase | affect the microtubule assembly | –
CC(C)=CCc1[nH]c2ccccc2c1C[C@@H]1NC(=O)[C@@H]2CCCN2C1=O [tryprostatin B] | inhibited cell cycle progression in the M phase | affect the microtubule assembly | –
